Test results reported in patent US20110135754A1, “CONTROL OF DISEASES IN CROPS” (priority 2008, published 2011).

Key:
[1] = at 20 c; in water; cited from earlier work
[2] = tested on: rust; test: Field spray of vanadyl citrate solution on an oats crop to control rust; assay type: in vivo; conditions: oats crop for stock feed, about 2 hectares, sprayed at approx. 150 mm height, approx. 7.5 grams of elemental vanadium per hectare; adjacent untreated crop failed to give any yield due to rust
Experimental: A solution containing vanadium in the form of vanadyl citrate was prepared. The solution was sprayed onto about 2 hectares of an oats crop for stock feed, that was in early stages of growth where the crop was approximately 150 mm in height. The spray was applied in a manner such that approximately 7.5 grams of elemental vanadium per hectare, was applied to the crop.

SMILES | solubility [1] | crop yield (cuttings delivered) of treated crop [2]
[O]=[V](=[O])[O][V](=[O])=[O] [Vanadium Pentoxide, vanadium pentoxide] | 0.8 g/100 ml | –
O=C([O-])CC(O)(CC(=O)[O-])C(=O)[O-].[O]=[V+2] [vanadyl citrate] | – | delivered three cuttings
